“And” between values parts separate entries of the source, which are not always exact repeats. Identical values can stand only once.
Legend:
[1] = tested on: Interleukin-1beta (IL-1β); test: Extracellular IL-1β in LPS stimulated murine neutrophils (ELISA, in vitro); format: cell-based; details: for Concentration of IL-1β produced Mean ± S.E.: LPS 10 ng/ml, 4 hr
Method: Neutrophils were separated from whole blood by Histopaque gradient method (Histopaque-No. 1077). Cell count was adjusted to approximately 10^5/[…]. Lipopolysaccharide, at the concentration of 10 ng/ml was used as stimulus in in-vitro studies. […] Extracellular IL-1β was estimated through ELISA (Table 2) [Weir, R. E., Morgan, A. R., Britton, W. J., Butlin, C. R., Dockrell, H. M., 1994. Development of a whole blood assay to measure T cell responses to leprosy: a new tool for immuno-epidemiological fields studies of leprosy immunity. J. Immunol. Methods. 176, 93; Hussain, R., Kaleem, A., Shahid, F., Dojki, M., Jamil, B., Mehmood, H., Dawood, G., Dockrell, H., 2002. Cytokine profiles using whole blood assays can discriminate between tuberculosis patients and healthy endemic controls in a BCG-vaccinated population. J. Immunol. Methods. 264, 95-108]

skin allograft rejection = test: Skin allograft rejection time; format: in vivo, mice
Method: The modified method of Billingham and Medawar (1951) [[…]] was followed to study the skin allograft rejection time in mice. Graded doses of test material AD-B-63B were administered to the animals for 7 days and graft rejection time (GRT) was recorded by daily observation of epithelial skin layer survival. […] The basic mechanism involved in increase in graft rejection time is the suppression of T lymphocytes. After transplantation, MHC peptide complexes of the foreign organ are recognized by CD4+ and CD8+ T cells of the recipient as non-self antigens. These T cells differentiate into effector T cells and stimulate an immune response. After T cells differentiate and migrate to the site, macrophages and other inflammatory agents are mediated to the site. Cytotoxic T cells (CD8+) lyse the endothelial cells on the graft, CD4+ Th1 activate macrophages and CD4+ Th2 aid in antibody production.

[2] = tested on: cell mediated immune response (DTH); test: SRBC induced delayed type hypersensitivity (DTH) response; format: in vivo, mice; details: for FOOT PAD THICKNESS Mean ± SE: 24 h after SRBC challenge
Method: Test material was administered 2 h after immunization of mice by 200 μl of 5×10^9 SRBCs/ml. On 7th day, the thickness of the left hind foot was measured with spheromicrometer (0.01 mm pitch) and was considered as control. These mice were then challenged by injecting the 20 μl of 5×10^9 SRBCs/ml intradermally into the left hind footpad. The footpad thickness was measured again at 24 h after challenge (Doherty, 1981).

IL-2 = test: Intracellular IL-2 expression in SRBC immunised mice; format: in vivo, Swiss albino mice; details: graded doses; most significant suppression at 10 mg/kg p.o.
Method: Estimation of intracellular cytokines: The animals were immunized as mentioned above. After 6 days of drug administration, the animals were challenged on day 7. After 48 h of challenge, the blood was collected in the tubes containing EDTA (anti-coagulant) from retro-orbital plexes of animals to determine the effect of test material on the expression of intracellular IL-2 and IFN-γ (Th1) and IL-4 (Th2) cytokines. In this study, PE labeled IL-2 monoclonal antibody was used in one set and PE labeled IFN-γ and FITC labelled IL-4 monoclonal antibody was used in the other set of experimentation (FIG. 7, 8, 9).

CD8+ T cells = test: Lymphocyte immunophenotyping, CD8+ T cell population in SRBC immunised mice; format: in vivo, Swiss albino mice; details: graded doses; most significant suppression at 5 and 10 mg/kg vs sensitized control
Text: Immunophenotyping focuses on lymphocyte populations involved in acquired immunity. Specific molecules present on the cell surface defines characteristics of lymphocytes such as state of activation or functional capabilities. Murine monoclonal antibodies conjugated to a fluorochrome and directed against co-receptors CD4 and CD8 were used in a multi parametric flowcytometric assay to quantify the lymphocyte subsets associated with the cell-mediated immune response.
Estimation of T cell surface markers: On day 0, mice were immunized by injecting 200 μl of 5×10^9 SRBC/ml intraperitonially. Drug administration was carried out for 6 days including the day of immunization. Same amount of SRBC was used to challenge the animals on day 7. After 24 h of challenge, blood was taken from retro-orbital plexus of animals for estimation of CD4^+ and CD8^+ T cells. 100 μl of whole blood was taken in each tube and FITC (fluorescein isothiocyanate) labelled CD4+ and PE (phycoerythrin) labelled CD8+ monoclonal antibodies were added and mixed gently. Tubes were incubated in the dark for 30 min. at room temperature. Subsequently, 2 ml of 1× FACS lysing solution was added at room temperature with gentle mixing. Samples were again incubated at room temperature for 10 min. […]

[3] = tested on: macrophage phagocytic response; test: Clearance rate of carbon particles from the circulation (phagocytic index, in vivo); design: species or system mice
Method: K., Sharma, M. L., Kaul, A and Khajuria, A. (1986) Immunomodulating agents of plant origin. 1. Preliminary screening. Journal of Ethnopharmacology. 18, 133-141.] Blood samples were collected before and at intervals varying between 2 and 90 min after carbon injection. An aliquot (10 μL) of blood samples were lysed with 2mL of 0.1% acetic acid and the transparency determined spectrophotometrically at 675 nm (Uvikon 810, spectrophotometer, Kontron Ltd., Switzerland) (Hudson and Hay, 1980). AD-B-63B was administered orally for 7 days and 30 min prior to the carbon injection. The rate of carbon clearance termed as phagocytic index was calculated (Table 4).

SMILES: CC(=O)OC(C)(C)/C=C/C(=O)[C@](C)(O)[C@H]1[C@H](O)C[C@@]2(C)[C@@H]3CC=C4[C@@H](C=C(O[C@@H]5O[C@H](CO)[C@@H](O)[C@H](O)[C@H]5O)C(=O)C4(C)C)[C@]3(C)C(=O)C[C@]12C [AD-B-63B, 2-O-β-D-glucopyranosyl cucurbitacin E]
- % activity IL-1β expression against LPS control (decrease) ([1]; 0.5 μg/ml): 10.25↓ %
- Concentration of IL-1β produced Mean ± S.E. ([1]; 0.5 μg/ml): 120.91 ± 2.61 pg/mL
- % activity IL-1β expression against LPS control (decrease) ([1]; 1 μg/ml): 18.66↓ %
- Concentration of IL-1β produced Mean ± S.E. ([1]; 1 μg/ml): 109.58 ± 3.21 pg/mL
- % activity IL-1β expression against LPS control (decrease) ([1]; 5.0 μg/ml): 30.90% and 30.90↓ %
- Concentration of IL-1β produced Mean ± S.E. ([1]; 5.0 μg/ml): 93.08 ± 2.61 pg/mL
- % activity IL-1β expression against LPS control (decrease) ([1]; 10.0 μg/ml): 34.96% and 34.96↓ %
- Concentration of IL-1β produced Mean ± S.E. ([1]; 10.0 μg/ml): 87.61 ± 1.99 pg/mL
- Concentration of IL-1β produced Mean ± S.E. ([1]; […]): 106.66 ± 2.44 pg/mL
- GRAFT REJECTION (Percent), delayed (skin allograft rejection; 1 mg/kg p.o.): 16.30% and 16.30↓ %
- REJECTION TIME Mean ± S.E. (skin allograft rejection; 1 mg/kg p.o. for 7 days): 15.12 ± 0.11 days
- GRAFT REJECTION (Percent), delayed (skin allograft rejection; 5 mg/kg p.o.): 29.23% and 29.23↓ %
- REJECTION TIME Mean ± S.E. (skin allograft rejection; 5 mg/kg p.o. for 7 days): 16.80 ± 0.22 days
- GRAFT REJECTION (Percent), delayed (skin allograft rejection; 10 mg/kg p.o.): 31.84% and 31.84↓ %
- REJECTION TIME Mean ± S.E. (skin allograft rejection; 10 mg/kg p.o. for 7 days): 17.14 ± 0.23 days
- PERCENT INHIBITION (DTH response) ([2]; 1 mg/kg p.o.): 15.21↓ %
- FOOT PAD THICKNESS Mean ± SE ([2]; 1 mg/kg p.o.): 0.78 ± 0.01 mm
- PERCENT INHIBITION (DTH response) ([2]; 5 mg/kg p.o.): 28.26↓ %
- FOOT PAD THICKNESS Mean ± SE ([2]; 5 mg/kg p.o.): 0.66 ± 0.01 mm
- PERCENT INHIBITION (DTH response) ([2]; 10 mg/kg p.o.): 29.35↓ %
- FOOT PAD THICKNESS Mean ± SE ([2]; 10 mg/kg p.o.): 0.65 ± 0.02 mm
- SRBC induced DTH reaction ([2]; orally administered, graded doses): dose dependent decrease
- expression of intracellular IL-2 (IL-2): decrease
- percentage of CD8+ T-cell population (CD8+ T cells): decrease
- percent decrease in phagocytic index ([3]; 1 mg/kg): (14.28%↓)
- Phagocytic index [in vivo study] Mean ± S.E. ([3]; 1 mg/kg orally for 7 days): 1.08 ± 0.09
- percent decrease in phagocytic index ([3]; 5 mg/kg): (26.98%↓)
- Phagocytic index [in vivo study] Mean ± S.E. ([3]; 5 mg/kg orally for 7 days): 0.92 ± 0.04
- percent decrease in phagocytic index ([3]; 10 mg/kg): (26.19%↓)
- Phagocytic index [in vivo study] Mean ± S.E. ([3]; 10 mg/kg orally for 7 days): 0.93 ± 0.07
- decrease in phagocytic index ([3]; dose range of 1-10 mg/kg, oral for 7 days): 14.28-26.19%
